# Biological target: T1, human GCS (glucosylceramide synthase) (Homo sapiens, UniProt Q16739)
# T1 construct: made in house; host or cells: Expi293F cells (transient expression; microsome fraction)
# T1 sequence (Q16739 1-394): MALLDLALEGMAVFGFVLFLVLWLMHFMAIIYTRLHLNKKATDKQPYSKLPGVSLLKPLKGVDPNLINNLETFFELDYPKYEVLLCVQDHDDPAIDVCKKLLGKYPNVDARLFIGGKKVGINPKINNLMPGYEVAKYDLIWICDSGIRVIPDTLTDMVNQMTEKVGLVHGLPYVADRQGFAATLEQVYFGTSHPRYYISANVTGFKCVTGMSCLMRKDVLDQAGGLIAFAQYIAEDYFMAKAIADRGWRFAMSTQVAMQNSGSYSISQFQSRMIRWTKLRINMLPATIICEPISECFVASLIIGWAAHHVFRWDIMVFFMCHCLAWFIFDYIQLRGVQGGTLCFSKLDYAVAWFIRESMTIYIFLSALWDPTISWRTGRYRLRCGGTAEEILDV
# Experiment: Glucosylceramide Synthase (GCS) Assay
# Assay type: biochemical
# Details: test compound 10 μM; microsome fraction of Expi293F cells expressing human GCS; 1.7 μM UDP-glucose, 3 μM C8 ceramide; room temperature 60 min; C8 glucosylceramide by Rapidfire MS/MS; read-out: GCS enzyme inhibitory rate at 10 μM (%)
# Method in brief: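 Test compounds were run at a final 10 μM against liposomal C8 ceramide (3 μM) and UDP-glucose at its Km (1.7 μM). Human GCS came as microsomes from transfected Expi293F cells, incubated 60 min at room temperature, pH 7.5. Product measured by RapidFire MS/MS; 0% and 100% inhibition were DMSO and no-enzyme wells.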
row,SMILES,inhibition at 10 µM [%]
1,"Cc1cccc(OCC(F)(F)F)c1-n1cccc(C(=O)Nc2ccc(C(C)(C)O)cc2)c1=O [Example 68, N-[4-(2-hydroxypropan-2-yl)phenyl]-1-[2-methyl-6-(2,2,2-trifluoroethoxy)phenyl]-2-oxo-1,2-dihydropyridine-3-carboxamide]",97
2,"Cc1cc(C(=O)Nc2ccc(C3COC3)cc2)c(=O)n(-c2ccccc2OCC(F)F)n1 [Example 141, 2-[2-(2,2-difluoroethoxy)phenyl]-6-methyl-N-[4-(oxetan-3-yl)phenyl]-3-oxo-2,3-dihydropyridazine-4-carboxamide]",99
3,"O=C(Nc1cnn(CC(F)(F)C(F)(F)F)c1)c1cccn(-c2ccc(F)cc2OCC(F)(F)F)c1=O [Example 62, 1-[4-fluoro-2-(2,2,2-trifluoroethoxy)phenyl]-2-oxo-N-[1-(2,2,3,3,3-pentafluoropropyl)-1H-pyrazol-4-yl]-1,2-dihydropyridine-3-carboxamide]",77

# Now from value to compound:
row,inhibition at 10 µM [%],SMILES
1,100,"O=C(Nc1ccc(OCC(F)(F)F)nc1)c1cccn(-c2ccc(F)cc2OCC(F)(F)C(F)(F)F)c1=O [Example 56, 1-[4-fluoro-2-(2,2,3,3,3-pentafluoropropoxy)phenyl]-2-oxo-N-[6-(2,2,2-trifluoroethoxy)pyridin-3-yl]-1,2-dihydropyridine-3-carboxamide]"
2,82,"CC(C)(O)c1ccc(NC(=O)c2cccn(-c3cc(F)ccc3OCC(F)(F)F)c2=O)cn1 [Example 125, 1-[5-fluoro-2-(2,2,2-trifluoroethoxy)phenyl]-N-[6-(2-hydroxypropan-2-yl)pyridin-3-yl]-2-oxo-1,2-dihydropyridine-3-carboxamide]"
